Each structure is given as a SMILES string.

This passage reports IC50 results from patent publication EP2928896B1, “SOLID FORM OF DIHYDRO-PYRIDO-OXAZINE DERIVATIVE” (NOVARTIS AG, priority 2012, dated 2014).

For one test, the target named is T1, PI3K delta (Homo sapiens, UniProt O00329).
T1 construct: for the full-length p110-d subunit are generated and fused by overlapping PCR; p85 iSH2 (inter SH2 domain) fusion partner (N); His tag (C); made in house; host or cells: baculovirus; Tn5 (Trichoplusia ni) or TiniPro insect cells
T1 sequence (O00329 with tags, fused parts or gaps limits assumed): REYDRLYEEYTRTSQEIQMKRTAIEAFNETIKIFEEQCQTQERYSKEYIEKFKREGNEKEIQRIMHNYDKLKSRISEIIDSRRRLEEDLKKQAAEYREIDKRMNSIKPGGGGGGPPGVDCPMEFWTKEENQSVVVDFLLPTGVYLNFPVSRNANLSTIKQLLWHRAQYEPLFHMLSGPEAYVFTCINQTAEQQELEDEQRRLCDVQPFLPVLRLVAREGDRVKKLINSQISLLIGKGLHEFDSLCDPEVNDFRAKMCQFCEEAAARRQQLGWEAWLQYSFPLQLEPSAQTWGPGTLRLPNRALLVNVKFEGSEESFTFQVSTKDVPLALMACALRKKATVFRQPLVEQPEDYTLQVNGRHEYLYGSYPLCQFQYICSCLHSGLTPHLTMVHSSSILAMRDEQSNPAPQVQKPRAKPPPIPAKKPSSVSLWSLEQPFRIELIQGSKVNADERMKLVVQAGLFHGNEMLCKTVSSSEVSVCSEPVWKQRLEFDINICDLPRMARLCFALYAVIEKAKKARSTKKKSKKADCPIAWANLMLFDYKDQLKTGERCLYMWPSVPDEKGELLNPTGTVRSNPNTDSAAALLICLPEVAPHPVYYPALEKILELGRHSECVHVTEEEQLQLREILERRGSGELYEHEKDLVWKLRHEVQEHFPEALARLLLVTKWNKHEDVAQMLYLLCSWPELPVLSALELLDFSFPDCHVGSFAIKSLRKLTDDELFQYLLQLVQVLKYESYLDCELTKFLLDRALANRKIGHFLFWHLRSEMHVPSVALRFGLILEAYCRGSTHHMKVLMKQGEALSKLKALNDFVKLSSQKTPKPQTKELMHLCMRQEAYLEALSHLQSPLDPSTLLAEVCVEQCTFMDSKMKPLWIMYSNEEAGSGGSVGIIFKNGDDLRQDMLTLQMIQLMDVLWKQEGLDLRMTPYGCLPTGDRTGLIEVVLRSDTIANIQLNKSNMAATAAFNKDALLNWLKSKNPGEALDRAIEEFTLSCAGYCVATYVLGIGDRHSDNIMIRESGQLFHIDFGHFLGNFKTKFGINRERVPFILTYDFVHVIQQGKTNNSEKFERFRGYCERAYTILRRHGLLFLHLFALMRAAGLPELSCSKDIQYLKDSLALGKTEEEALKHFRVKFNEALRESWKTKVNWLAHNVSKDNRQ
Put plainly: Enzymatic PI3K delta isoform inhibition (lipid kinase activity, Kinase-Glo luminescence / ATP depletion). The class given is biochemical. (In general: In Kinase-Glo more light means more ATP remaining.)

In the next test the target is T2, PI3Kδ (Homo sapiens, UniProt O00329).
T2 construct: expressed in transfected cells
T2 sequence (O00329 1-1044): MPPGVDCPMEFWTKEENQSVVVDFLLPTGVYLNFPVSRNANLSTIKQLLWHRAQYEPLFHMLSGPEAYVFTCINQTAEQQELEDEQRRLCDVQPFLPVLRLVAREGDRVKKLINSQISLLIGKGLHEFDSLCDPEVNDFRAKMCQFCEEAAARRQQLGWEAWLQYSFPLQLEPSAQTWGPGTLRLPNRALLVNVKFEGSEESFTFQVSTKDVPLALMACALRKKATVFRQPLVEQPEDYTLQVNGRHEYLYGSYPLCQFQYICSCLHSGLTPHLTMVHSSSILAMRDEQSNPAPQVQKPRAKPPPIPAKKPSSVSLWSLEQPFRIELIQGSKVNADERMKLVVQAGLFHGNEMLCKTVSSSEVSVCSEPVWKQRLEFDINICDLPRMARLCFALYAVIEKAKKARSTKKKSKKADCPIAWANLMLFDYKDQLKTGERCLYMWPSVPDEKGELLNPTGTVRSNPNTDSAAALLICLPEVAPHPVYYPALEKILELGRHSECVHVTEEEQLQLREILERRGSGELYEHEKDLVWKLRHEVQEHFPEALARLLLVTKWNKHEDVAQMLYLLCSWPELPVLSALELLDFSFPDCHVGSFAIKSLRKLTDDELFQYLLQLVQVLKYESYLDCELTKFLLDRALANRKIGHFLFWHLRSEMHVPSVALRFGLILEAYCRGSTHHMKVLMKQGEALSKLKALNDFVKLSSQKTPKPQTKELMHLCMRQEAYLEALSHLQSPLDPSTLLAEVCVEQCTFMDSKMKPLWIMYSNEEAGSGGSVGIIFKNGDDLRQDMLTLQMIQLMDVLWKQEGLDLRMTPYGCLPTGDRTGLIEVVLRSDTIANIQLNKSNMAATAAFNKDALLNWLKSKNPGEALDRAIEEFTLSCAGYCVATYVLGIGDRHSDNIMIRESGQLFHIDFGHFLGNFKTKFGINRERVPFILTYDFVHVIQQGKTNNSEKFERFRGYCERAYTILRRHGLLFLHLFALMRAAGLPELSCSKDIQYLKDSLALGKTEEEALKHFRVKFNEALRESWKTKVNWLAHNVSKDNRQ
Put plainly: PI3K-mediated Akt 1/2 (S473) phosphorylation in Rat-1 cells overexpressing myristoylated PI3K delta (AlphaScreen SureFire). The class given is cell-based. On the procedure: Rat-1 cells stably overexpressing a myristoylated form of the catalytic subunit of human phosphoinositide-3 kinase (PI3K) alpha, beta or delta were plated in 384-well plates at a density of 7500 (PI3K alpha), 6200 (PI3K beta), or 4000 (PI3K delta) cells in 30ul complete growth medium (Dulbecco's modified Eagle's medium (DMEM high glucose) supplemented with 10% (v/v) fetal bovine serum, 1% (v/v) MEM non essential amino acids, 10mM HEPES, 2mM L-glutamine, 10 µg/mL puromycin and 1% (v/v) Penicillin/Streptomycin) and were incubated at 37%C / 5%CO2 / 95% humidity for 24h. Compounds were diluted in 384-well compound plates to obtain 8-point serial dilutions for 40 test compounds in 90% DMSO, as well as 4 reference compounds plus 16 high controls and 16 low (inhibited) controls. Predilution plates were prepared by dispensing pipetting 250 nl of compound solutions into 384-well polypropylen plates using a Hummingwell nanoliter dispensor. Compounds were prediluted by the addition of 49.75 ul complete growth medium. 10ul of prediluted compound solution were transferred to the cell plate using a 384-well pipettor, resulting in a final DMSO concentration of 0.11%. […]
For detection of p-AKT(Ser473), the SureFire® p-Akt 1/2 (Ser473) Assay Kit (PerkinElmer, U.S.A) was used. […] The plate was read on an AlphaScreen® compatible plate reader, using standard AlphaScreen® settings.
(Bead proximity is the source of the signal in Alpha formats.)

The target of the next test is PI3K alpha (Homo sapiens, UniProt P42336). Nature of the test: Enzymatic PI3K alpha isoform inhibition (lipid kinase activity, Kinase-Glo luminescence / ATP depletion). The class given is biochemical. The text has this: The reaction is started by the addition of PI3 kinase, e.g. PI3 kinase δ.
PI3K alpha, sequence (P42336 with tags, fused parts or gaps limits assumed): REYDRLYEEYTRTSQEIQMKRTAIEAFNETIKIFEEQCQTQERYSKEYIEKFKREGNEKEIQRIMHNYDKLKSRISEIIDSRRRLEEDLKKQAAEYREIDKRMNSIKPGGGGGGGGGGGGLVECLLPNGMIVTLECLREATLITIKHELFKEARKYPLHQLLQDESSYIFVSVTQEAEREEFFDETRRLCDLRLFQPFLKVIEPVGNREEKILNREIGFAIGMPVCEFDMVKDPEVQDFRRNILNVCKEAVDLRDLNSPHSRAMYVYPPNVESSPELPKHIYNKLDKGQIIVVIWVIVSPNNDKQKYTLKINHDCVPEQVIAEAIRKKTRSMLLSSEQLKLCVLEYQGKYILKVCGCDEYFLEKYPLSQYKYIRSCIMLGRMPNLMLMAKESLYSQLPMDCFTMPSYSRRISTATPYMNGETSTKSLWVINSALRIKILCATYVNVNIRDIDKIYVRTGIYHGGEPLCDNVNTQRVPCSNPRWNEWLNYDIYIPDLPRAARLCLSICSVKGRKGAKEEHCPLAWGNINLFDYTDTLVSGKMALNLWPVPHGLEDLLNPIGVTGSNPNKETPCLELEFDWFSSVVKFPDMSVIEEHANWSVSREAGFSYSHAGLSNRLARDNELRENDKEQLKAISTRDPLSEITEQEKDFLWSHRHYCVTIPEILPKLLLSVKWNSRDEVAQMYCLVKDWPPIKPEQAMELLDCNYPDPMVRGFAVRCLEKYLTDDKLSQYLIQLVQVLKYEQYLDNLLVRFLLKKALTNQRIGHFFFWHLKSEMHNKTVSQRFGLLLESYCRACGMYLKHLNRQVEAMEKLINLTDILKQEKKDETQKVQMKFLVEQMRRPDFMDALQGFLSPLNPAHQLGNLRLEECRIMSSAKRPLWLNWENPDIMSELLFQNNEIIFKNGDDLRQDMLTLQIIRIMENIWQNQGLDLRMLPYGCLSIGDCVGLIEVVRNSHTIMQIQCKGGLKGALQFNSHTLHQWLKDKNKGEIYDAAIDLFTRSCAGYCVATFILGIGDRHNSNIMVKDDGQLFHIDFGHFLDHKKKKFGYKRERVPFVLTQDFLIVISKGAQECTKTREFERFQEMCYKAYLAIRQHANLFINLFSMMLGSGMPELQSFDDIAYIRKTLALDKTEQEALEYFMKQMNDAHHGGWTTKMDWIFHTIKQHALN
The reaction is started by the addition of ATP.

The IC50 is the concentration that gives 50% inhibition. Consider `COc1ncc(N2CCOc3cnc(O[C@H]4CCN(C(=O)C5CCS(=O)(=O)CC5)C4)cc32)cc1C` [Example F1, (1,1-Dioxo-hexahydro-1lambda*6*-thiopyran-4-yl)-{(S)-3-[1-(6-methoxy-5-methyl-pyridin-3-yl)-2,3-dihydro-1H-pyrido[3,4-b][1,4]oxazin-7-yloxy]-pyrrolidin-1-yl}-methanone], for which the IC50 against PI3K delta was 3 nM; on PI3Kδ, 11 nM; against PI3K alpha, 109 nM.
